Source: PubChem BioAssay (NCI)
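Results reflect a 48-hour exposure of cells in 96-well plates to compound at five concentrations. GI50 marks 50% less growth. TGI denotes the concentration required for complete inhibition of growth.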

Key:
Experiment in all cases: NCI-60 cell line screen, 48 h
[1] = test system: DU-145 prostate
[2] = test system: SR leukemia
[3] = test system: NCI-H23 lung
[4] = test system: PC-3 prostate
[5] = test system: MCF7 breast
[6] = test system: OVCAR-5 ovarian
[7] = test system: NCI/ADR-RES ovarian
[8] = test system: UACC-62 melanoma
[9] = test system: ACHN renal
[10] = test system: NCI-H522 lung
[11] = test system: SF-295 CNS
[12] = test system: HCC-2998 colon
[13] = test system: NCI-H460 lung
[14] = test system: A549 NSCLC
[15] = test system: MDA-MB-435
[16] = test system: HOP-62 NSCLC
[17] = test system: KM12 colon
[18] = test system: MALME-3M melanoma
[19] = test system: SK-MEL-5 melanoma
[20] = test system: OVCAR-4 ovarian
[21] = test system: SW-620 colon
[22] = test system: IGROV1 ovarian
[23] = test system: HCT-15 colon
[24] = test system: RPMI-8226 leukemia
[25] = test system: OVCAR-8 ovarian
[26] = test system: TK-10 renal
[27] = test system: MOLT-4 leukemia
[28] = test system: OVCAR-3 ovarian
[29] = test system: SNB-19 CNS
[30] = test system: SF-268 CNS
[31] = test system: U251 CNS
[32] = test system: UO-31 renal
[33] = test system: M14 melanoma
[34] = test system: HT29 colon
[35] = test system: HL-60(TB) leukemia
[36] = test system: RXF 393 renal
[37] = test system: SNB-75 CNS
[38] = test system: HCT-116 colon
[39] = test system: 786-0 renal
[40] = test system: COLO 205 colon
[41] = test system: A498 renal
[42] = test system: UACC-257 melanoma
[43] = test system: HOP-92 NSCLC
[44] = test system: SF-539 CNS
[45] = test system: SK-MEL-28 melanoma
[46] = test system: SN12C renal
[47] = test system: MDA-MB-231 breast
[48] = test system: CCRF-CEM leukemia
[49] = test system: CAKI-1 renal
[50] = test system: HS 578T breast
[51] = test system: EKVX NSCLC
[52] = test system: T-47D breast
[53] = test system: NCI-H226 lung
[54] = test system: LOX IMVI melanoma
[55] = test system: SK-MEL-2 melanoma
[56] = test system: SK-OV-3 ovarian
[57] = test system: K-562 leukemia
[58] = test system: BT-549 breast

`COc1cc2c3c(n(CCCNC4CCC4)c(=O)c2cc1OC)-c1cc2c(cc1C3=O)OCO2` showed a GI50 [1] of 1040 nM, a TGI [1] of 2560 nM and a GI50 [2] of 57.6 nM. It also gave a TGI [2] of 793 nM, a GI50 [3] of 1290 nM and a TGI [3] of 3190 nM. The GI50 [4] was 1220 nM, the TGI [4] was 2870 nM and the GI50 [5] was 109 nM. For the same compound, the TGI [5] was 1870 nM, the GI50 [6] was 1890 nM and the TGI [6] was 3440 nM. The GI50 [7] was 1090 nM, the TGI [7] was 3610 nM and the GI50 [8] was 4200 nM. The TGI [8] was 12500 nM, the GI50 [9] was 873 nM and the TGI [9] was 2360 nM. For the same compound, the GI50 [10] was 581 nM, the TGI [10] was 2490 nM and the GI50 [11] was 274 nM. It also gave a TGI [11] of 1740 nM, a GI50 [12] of 1420 nM and a TGI [12] of 2820 nM. It also gave a GI50 [13] of 145 nM, a TGI [13] of 1660 nM and a GI50 [14] of 1300 nM. The TGI [14] was 3310 nM, the GI50 [15] was 1590 nM and the TGI [15] was 3050 nM. The GI50 [16] was 393 nM, the TGI [16] was 1970 nM and the GI50 [17] was 2010 nM. For the same compound, the TGI [17] was 5720 nM, the GI50 [18] was 4340 nM and the TGI [18] was 9280 nM. For the same compound, the GI50 [19] was 5090 nM, the TGI [19] was 10300 nM and the GI50 [20] was 1770 nM. The TGI [20] was 3330 nM, the GI50 [21] was 452 nM and the TGI [21] was 2560 nM. The GI50 [22] was 1480 nM, the TGI [22] was 3500 nM and the GI50 [23] was 1330 nM. For the same compound, the TGI [23] was 3130 nM, the GI50 [24] was 492 nM and the TGI [24] was 2180 nM. The GI50 [25] was 1300 nM, the TGI [25] was 3610 nM and the GI50 [26] was 19000 nM. It also gave a TGI [26] of 33700 nM, a GI50 [27] of 26.7 nM and a TGI [27] of 1910 nM. The GI50 [28] was 1510 nM, the TGI [28] was 3050 nM and the GI50 [29] was 1240 nM. The TGI [29] was 3180 nM, the GI50 [30] was 950 nM and the TGI [30] was 2830 nM. For the same compound, the GI50 [31] was 838 nM, the TGI [31] was 2870 nM and the GI50 [32] was 1660 nM. It also gave a TGI [32] of 4530 nM, a GI50 [33] of 1350 nM and a TGI [33] of 2800 nM. The GI50 [34] was 1280 nM, the TGI [34] was 2850 nM and the GI50 [35] was 525 nM. It also gave a TGI [35] of 1520 nM, a GI50 [36] of 1340 nM and a TGI [36] of 2850 nM. For the same compound, the GI50 [37] was 1120 nM, the TGI [37] was 2640 nM and the GI50 [38] was 1050 nM. It also gave a TGI [38] of 2780 nM, a GI50 [39] of 1540 nM and a TGI [39] of 3050 nM. The GI50 [40] was 1790 nM, the TGI [40] was 6620 nM and the GI50 [41] was 14500 nM. It also gave a TGI [41] of 29200 nM, a GI50 [42] of 16300 nM and a TGI [42] of 34200 nM. For the same compound, the GI50 [43] was 5260 nM, the TGI [43] was 13400 nM and the GI50 [44] was 1210 nM. The TGI [44] was 2560 nM, the GI50 [45] was 1750 nM and the TGI [45] was 3380 nM. It also gave a GI50 [46] of 1480 nM, a TGI [46] of 3190 nM and a GI50 [47] of 1320 nM. It also gave a TGI [47] of 2780 nM, a GI50 [48] of 75.7 nM and a TGI [48] of 3550 nM. For the same compound, the GI50 [49] was 1110 nM, the TGI [49] was 2370 nM and the GI50 [50] was 6320 nM. The TGI [50] was 15800 nM, the GI50 [51] was 1960 nM and the TGI [51] was 4140 nM. It also gave a GI50 [52] of 3730 nM, a TGI [52] of 10200 nM and a GI50 [53] of 5540 nM. The TGI [53] was 26100 nM, the GI50 [54] was 360 nM and the TGI [54] was 884 nM. It also gave a GI50 [55] of 18400 nM, a TGI [55] of 33700 nM and a GI50 [56] of 977 nM. The TGI [56] was 5630 nM, the GI50 [57] was 554 nM and the TGI [57] was 3220 nM. It also gave a GI50 [58] of 7270 nM and a TGI [58] of 22500 nM.
